Results published in patent US20030207400A1, “Vectors for dna delivery” (priority 2003, published 2003).

System: plasmid pCMV/mEPO
Experiment: Gel electrophoresis of complexes of plasmid and fluorescently labelled polyamides
Assay type: binding
Details: agarose gel, after 10 min or 5 hr incubation; control rhodamine-peptide
Protocol: The ability of the polyamides to bind the DNA plasmid was assessed by gel electrophoresis of complexes of plasmid and fluorescently labelled polyamides.
A plasmid pCMV/mEPO was constructed by inserting the mouse EPO (mEPO) coding sequence as a EcoRI-BamHI 0.6 Kb fragment into pViJnsB (Montgomery, D. L., Shiver J. W., Leander K. R., Perry, H. C., Friedman, A., Martinez, D., Ulmer, J. B., Donnelly, J. J., Liu, M. A. (1993) DNA Cell. Biol. 12, 777-783.), which contains the CMV immediate/early region promoter and enhancer with intron A followed by the BGH polyadenylation signal. The mouse EPO coding region including 40 bp of the 5′ untranslated region (Shoemaker, C. B., & Mitsock, L. D. (1986) Mol. Cell. Biol. 6, 849-858) was assembled from synthetic oligonucleotides as described (Stemmer, W. P. C, Crameri, A., Ha, K. D., Brennan, T. M., & Heyneker, H. L. (1995) Gene 164, 49-53.).
In a typical experiment either the rhodamine labelled polyamide (33), the peptide-polyamide (35) and the correspondent rhodamine-peptide as control, were dissolved in DMSO at a 0.55 mM concentration. Serial dilutions of the polyamides and the peptide were prepared in DMSO. The plasmid stock solution was 0.54 μM. […]

Rhodamine-Aoc-Pro-Lys-Lys-Lys-Arg-Lys-Val-Gluu-Asp-Pro-Tyr-Lys(Br—CH2—CO)-Gly-Gly-CO—NH2 [compound 34]
co-migration of the fluorescent label with the plasmid: does not co-migrate with the plasmid
